Experimental data as given in the supplement of paper PMC10627819.

Tests used:
Conditions in all cases: main component drawn
S. aureus Newman [1] = assay: Bliss interaction score (quartile over a dose matrix) (fitness difference); higher = more antagonism (negative = synergy)
Summary of the method: (§1)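 At entry into stationary phase, OD595 was recorded and divided by the robust mean of the no-drug wells on that plate, with any value above 1 set to 1. This gives the fitness measure used throughout. Single-drug fitness was inferred from combination data, and the Bliss score, observed minus product-expected fitness, is shown as quartiles across technical, biological and donor/recipient replicates.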

B. subtilis 168 [2] = assay: as above
Summary of the method: as §1

S. pneumoniae D39V = assay: as above
Summary of the method: as §1

S. aureus DSM 20231 = assay: as above
Summary of the method: as §1

S. aureus Newman [3] = assay: fitness (endpoint OD595 vs no drug) (fraction); higher = more growth
Summary of the method: (§2)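 Each well of a 384-well plate received 30 µl of culture at OD595 0.01, or 55 µl for S. pneumoniae. TSB, LB Lennox or CY served as media at 37 °C. OD595 was taken every 30 min for 14 h and corrected by subtracting the first reading. Fitness is the optical density at stationary-phase entry divided by the robust mean of no-drug controls, capped at 1.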

B. subtilis 168 [4] = assay: as above
Summary of the method: as §2
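Wherever Bliss interaction score (quartile over a dose matrix) is given: first quartile when negative (synergy) and third quartile when positive (antagonism).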

CC[C@H](C)[C@H](N)C1=N[C@H](C(=O)N[C@@H](CC(C)C)C(=O)N[C@H](CCC(=O)O)C(=O)N[C@H](C(=O)N[C@H]2CCCCNC(=O)[C@H](CC(N)=O)NC(=O)[C@@H](CC(=O)O)NC(=O)[C@H](Cc3cnc[nH]3)NC(=O)[C@@H](Cc3ccccc3)NC(=O)[C@H]([C@@H](C)CC)NC(=O)[C@@H](CCCN)NC2=O)[C@@H](C)CC)CS1 [Bacitracin] + C/C(=C\C(=O)OCCCCCCCCC(=O)O)C[C@@H]1OC[C@H](C[C@@H]2O[C@H]2[C@@H](C)[C@H](C)O)[C@@H](O)[C@H]1O [Pseudomonic acid]
Conditions	Bliss interaction score
B. subtilis 168 [2]	-0.0784
S. aureus DSM 20231	0.0189
S. aureus Newman [1]	0.0307
S. pneumoniae D39V	-0.0953

fitness, S. aureus Newman [3], one replicate
Conditions	first compound 18.75 µg/mL	first compound 37.5 µg/mL	first compound 75 µg/mL
partner 0.0313 µg/mL	0.0438	0.029	0.0257
partner 0.0625 µg/mL	0.0196	0.0219	0.0077
partner 0.125 µg/mL	0.0416	0.0193	0.0115

CC[C@H](C)[C@H](N)C1=N[C@H](C(=O)N[C@@H](CC(C)C)C(=O)N[C@H](CCC(=O)O)C(=O)N[C@H](C(=O)N[C@H]2CCCCNC(=O)[C@H](CC(N)=O)NC(=O)[C@@H](CC(=O)O)NC(=O)[C@H](Cc3cnc[nH]3)NC(=O)[C@@H](Cc3ccccc3)NC(=O)[C@H]([C@@H](C)CC)NC(=O)[C@@H](CCCN)NC2=O)[C@@H](C)CC)CS1 [Bacitracin] + CC1=C(C(=O)O)N2C(=O)[C@@H](NC(=O)[C@H](N)c3ccccc3)[C@H]2SC1 [Cephalexin]
Conditions	Bliss interaction score
B. subtilis 168 [2]	0.0854
S. aureus DSM 20231	0.0487
S. aureus Newman [1]	0.129
S. pneumoniae D39V	-0.0987

fitness
Conditions	partner 0.125 µg/mL	partner 0.25 µg/mL	partner 0.5 µg/mL	partner 1 µg/mL
B. subtilis 168 [4], first compound 37.5 µg/mL	0.922	0.824	0.838	–
B. subtilis 168 [4], first compound 75 µg/mL	0.884	0.869	0.904	–
B. subtilis 168 [4], first compound 150 µg/mL	0.72	–	–	–
S. aureus Newman [3], first compound 18.75 µg/mL	–	0.798	0.785	0.791
S. aureus Newman [3], first compound 75 µg/mL	–	0.0499	0.0405	0.045

B. subtilis 168 [4], partner 1 µg/mL, one replicate
Conditions	fitness
first compound 37.5 µg/mL	0.874
first compound 75 µg/mL	0.886
first compound 150 µg/mL	0.53

CC[C@H](C)[C@H](N)C1=N[C@H](C(=O)N[C@@H](CC(C)C)C(=O)N[C@H](CCC(=O)O)C(=O)N[C@H](C(=O)N[C@H]2CCCCNC(=O)[C@H](CC(N)=O)NC(=O)[C@@H](CC(=O)O)NC(=O)[C@H](Cc3cnc[nH]3)NC(=O)[C@@H](Cc3ccccc3)NC(=O)[C@H]([C@@H](C)CC)NC(=O)[C@@H](CCCN)NC2=O)[C@@H](C)CC)CS1 [Bacitracin] + CC1=C\[C@@H](O)CC(=O)Cc2nc(co2)C(=O)N2CCC=C2C(=O)O[C@H](C(C)C)[C@H](C)/C=C/C(=O)NC\C=C\1 [Virginiamycin M1]
Conditions	Bliss interaction score
B. subtilis 168 [2]	0.0905
S. aureus DSM 20231	-0.0463
S. aureus Newman [1]	0.0498
S. pneumoniae D39V	0.094

fitness
Conditions	partner 0.0625 µg/mL	partner 0.125 µg/mL	partner 0.25 µg/mL
B. subtilis 168 [4], first compound 37.5 µg/mL	0.986	0.926	0.927
B. subtilis 168 [4], first compound 75 µg/mL	0.994	0.861	0.951
S. aureus Newman [3], first compound 18.75 µg/mL	0.698	0.698	0.705
S. aureus Newman [3], first compound 37.5 µg/mL	0.146	0.215	0.215
S. aureus Newman [3], first compound 75 µg/mL	0.037	0.0313	0.0704

fitness, S. aureus Newman [3], one replicate
Conditions	first compound 18.75 µg/mL	first compound 37.5 µg/mL	first compound 75 µg/mL
partner 0.5 µg/mL	0.693	0.519	0.0148
partner 1 µg/mL	0.72	0.368	0.0101
partner 2 µg/mL	0.594	0.127	0.0147

CC[C@H](C)[C@H](N)C1=N[C@H](C(=O)N[C@@H](CC(C)C)C(=O)N[C@H](CCC(=O)O)C(=O)N[C@H](C(=O)N[C@H]2CCCCNC(=O)[C@H](CC(N)=O)NC(=O)[C@@H](CC(=O)O)NC(=O)[C@H](Cc3cnc[nH]3)NC(=O)[C@@H](Cc3ccccc3)NC(=O)[C@H]([C@@H](C)CC)NC(=O)[C@@H](CCCN)NC2=O)[C@@H](C)CC)CS1 [Bacitracin] + CC(C1CCC(C(O1)OC2C(CC(C(C2O)OC3C(C(C(CO3)(C)O)NC)O)N)N)N)NC [Gentamicin]
Conditions	Bliss interaction score
B. subtilis 168 [2]	-0.298
S. aureus DSM 20231	-0.0565
S. aureus Newman [1]	0.102
S. pneumoniae D39V	-0.149

fitness
Conditions	first compound 18.75 µg/mL	first compound 37.5 µg/mL	first compound 75 µg/mL	first compound 150 µg/mL
B. subtilis 168 [4], partner 0.125 µg/mL	–	–	–	0.0432
B. subtilis 168 [4], partner 0.25 µg/mL	–	0.0865	0.0452	0.0472
S. aureus Newman [3], partner 0.375 µg/mL	0.591	0.122	0.0738	–
S. aureus Newman [3], partner 0.5 µg/mL	0.759	0.625	0.0785	–
S. aureus Newman [3], partner 0.75 µg/mL	0.461	0.137	0.0623	–
S. aureus Newman [3], partner 1 µg/mL	0.803	–	0.0125	–
S. aureus Newman [3], partner 1.5 µg/mL	–	0.163	0.0666	–
S. aureus Newman [3], partner 2 µg/mL	0.842	–	0.0163	–
